Source: US20230183249A1, “NEW TRIAZINOINDOLE COMPOUNDS” (JANSSEN PHARMACEUTICA NV, priority 2020, published 2023)

Experiments:
[1] = system: TNF; assay: PBMC assay, TNF cytokine levels after LPS stimulation; type: cell-based; conditions: human PBMCs, 100 ng/ml LPS for 6 hrs, TNF in supernatant via MSD
Protocol: (§1) Peripheral venous blood was collected from healthy individuals and human peripheral blood mononuclear cells (PBMCs) were isolated from blood by Ficoll-Histopaque (Sigma-Aldrich, A0561) density gradient centrifugation. After isolation, PBMCs were stored in liquid nitrogen for later use. Upon thawing, PBMC cell viability was determined in growth medium (RPMI media supplemented with 10% fetal bovine serum, 1% Pen-Strep and 1% L-glutamine). Compounds were spotted in a 1:3 serial dilution in DMSO and diluted to the final concentration in 30 μl medium in 96 well plates (Falcon, 353072). PBMCs were added at a density of 7.5×10^4 cells per well and incubated for 30 min in a 5% C02 incubator at 37° C. LPS stimulation was performed by addition of 100 ng/ml LPS (final concentration, Invivogen, tlrl-smlps) for 6 hrs followed by collection of cellular supernatant and the analysis of IL-1β (μM) and TNF cytokines levels (μM) via MSD technology according to manufacturers' guidelines (MSD, K151A0H).
The IC50 values (for IL-1β) and EC50 values (TNF) were obtained on compounds of the invention/examples, and are depicted in the following table: […]

[2] = target: T1, NLRP3 (Homo sapiens, UniProt Q96P20); assay: PBMC assay, IL-1β release after LPS stimulation; type: cell-based; conditions: human PBMCs, 100 ng/ml LPS for 6 hrs, IL-1β in supernatant via MSD; read-out: IL1β IC50
T1 construct: human peripheral blood mononuclear cells (PBMCs) were isolated from blood; endogenous in cells; host or cells: primary human PBMCs from healthy donors
T1 sequence (Q96P20 whole entry): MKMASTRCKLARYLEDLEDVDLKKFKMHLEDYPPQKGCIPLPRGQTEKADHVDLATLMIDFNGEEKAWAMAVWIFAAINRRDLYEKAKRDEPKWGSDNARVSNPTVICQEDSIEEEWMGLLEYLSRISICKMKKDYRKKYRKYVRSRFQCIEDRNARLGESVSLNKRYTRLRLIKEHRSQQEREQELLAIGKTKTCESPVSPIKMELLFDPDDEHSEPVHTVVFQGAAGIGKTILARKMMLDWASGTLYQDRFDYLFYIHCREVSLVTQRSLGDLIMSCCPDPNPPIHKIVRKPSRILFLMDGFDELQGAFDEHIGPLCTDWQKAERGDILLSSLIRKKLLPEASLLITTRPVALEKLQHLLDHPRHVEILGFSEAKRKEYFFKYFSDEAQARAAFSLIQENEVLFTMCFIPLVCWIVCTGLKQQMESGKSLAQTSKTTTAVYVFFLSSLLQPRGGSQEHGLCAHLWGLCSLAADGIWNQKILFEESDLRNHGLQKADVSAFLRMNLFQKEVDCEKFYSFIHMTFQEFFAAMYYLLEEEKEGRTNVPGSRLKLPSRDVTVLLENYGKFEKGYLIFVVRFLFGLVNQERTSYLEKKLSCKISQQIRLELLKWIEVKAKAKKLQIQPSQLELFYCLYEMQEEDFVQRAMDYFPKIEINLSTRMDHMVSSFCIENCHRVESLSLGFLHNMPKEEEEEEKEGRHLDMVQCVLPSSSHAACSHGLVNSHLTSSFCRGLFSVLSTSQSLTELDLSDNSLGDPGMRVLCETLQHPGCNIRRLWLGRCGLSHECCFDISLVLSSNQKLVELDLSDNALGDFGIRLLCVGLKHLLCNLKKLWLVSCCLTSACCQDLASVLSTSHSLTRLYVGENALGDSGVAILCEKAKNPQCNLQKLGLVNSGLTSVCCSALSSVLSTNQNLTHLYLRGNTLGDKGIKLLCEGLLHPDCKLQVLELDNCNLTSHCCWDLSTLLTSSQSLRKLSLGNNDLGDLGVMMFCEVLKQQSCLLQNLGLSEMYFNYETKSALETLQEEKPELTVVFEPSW
Protocol: The activity of a compound according to the present invention can be assessed by in vitro methods.
as §1, with “Compounds were spotted in a 1:3 serial dilution in DMSO and diluted to the final concentration in 30 μl medium in 96 well plates (Falcon, 353072).” left out

Row | EC50 [1] | IC50 [2] | melting point | SMILES
1 | > 10 µM | 0.62 µM |  | O=C(Cn1nc(Cl)n2c(cc3ccccc32)c1=O)Nc1ccncn1 [Final Cpd 1, 2-(4-chloro-1-oxo-[1,2,4]triazino[4,5-a]indol-2-yl)-N-pyrimidin-4-yl-acetamide]
2 | > 10 µM | 1.89 µM |  | O=C(Cn1ncn2c(cc3ccccc32)c1=O)Nc1ccncn1 [Final Cpd 2]
3 | > 10 µM | 1.58 µM |  | O=C(Cn1ncn2c(cc3ccc(F)cc32)c1=O)Nc1ccncn1 [Final Cpd 3]
4 | > 10 µM | 1.54 µM |  | O=C(Cn1nc(C2CCC2)n2c(cc3ccccc32)c1=O)Nc1ccncn1 [Final Cpd 4]
5 | > 10 µM | 0.47 µM |  | O=C(Cn1nc(C(F)F)n2c(cc3ccccc32)c1=O)Nc1ccncn1 [Final Cpd 5]
6 | > 10 µM | > 10 µM |  | CC(F)(F)c1nn(CC(=O)Nc2ccncn2)c(=O)c2cc3ccccc3n12 [Final Cpd 6]
7 | > 10 µM | 3.5 µM |  | N#Cc1nn(CC(=O)Nc2ccncn2)c(=O)c2cc3ccccc3n12 [Final Cpd 7]
8 | > 10 µM | 5.8 µM |  | O=C(Cn1nc(-c2ncco2)n2c(cc3ccccc32)c1=O)Nc1ccncn1 [Final Cpd 8]
9 | > 10 µM | 1.91 µM |  | O=C(Cn1nc(C(F)(F)F)n2c(cc3ccccc32)c1=O)Nc1ccncn1 [Final Cpd 9]
10 | > 10 µM | 1.68 µM | 277.81 °C | CCc1nn(CC(=O)NC2CC2)c(=O)c2cc3ccc(F)cc3n12 [Final Cpd 10]
11 | > 10 µM | 0.41 µM |  | COc1ncccc1NC(=O)Cn1nc(C(C)C)n2c(cc3ccccc32)c1=O [Final Cpd 12]
12 | > 10 µM | 0.15 µM |  | Cc1cc(NC(=O)Cn2nc(C(C)C)n3c(cc4ccccc43)c2=O)ccn1 [Final Cpd 13]
13 | > 10 µM | 0.17 µM |  | CC(C)c1nn(CC(=O)Nc2ccncn2)c(=O)c2cc3ccccc3n12 [Final Cpd 14]
14 | > 10 µM | 0.63 µM | 232.81 °C | CCc1nn(CC(=O)Nc2cccnc2)c(=O)c2cc3ccccc3n12 [Final Cpd 15]
15 | > 10 µM | 2.8 µM | 216.79 °C | CCc1nn(CC(=O)Nc2ccccc2OC)c(=O)c2cc3ccccc3n12 [Final Cpd 17]
16 | > 10 µM | 0.76 µM |  | O=C(Cn1nc(C2CC2)n2c(cc3ccccc32)c1=O)Nc1ccncn1 [Final Cpd 18]
17 | > 10 µM | 0.31 µM |  | CN(C)c1nn(CC(=O)NC2CCOCC2)c(=O)c2cc3ccccc3n12 [Final Cpd 20]
18 | > 10 µM | 0.39 µM |  | CN(C)c1nn(CC(=O)N[C@H]2CC[C@H](O)CC2)c(=O)c2cc3ccccc3n12 [Final Cpd 21]
19 | > 10 µM | 1.44 µM |  | CC(O)c1nn(CC(=O)Nc2ccncn2)c(=O)c2cc3ccccc3n12 (stereo not shown) [Final Cpd 22, 2-[4-(1-hydroxyethyl)-1-oxo-[1,2,4]triazino[4,5-a]indol-2-yl]-N-pyrimidin-4-yl-acetamide]
20 | > 10 µM | 9.12 µM |  | Cc1nn(CC(=O)NC2CC2)c(=O)c2cc3ccccc3n12 [Final Cpd 23, N-cyclopropyl-2-(4-methyl-1-oxo-[1,2,4]triazino[4,5-a]indol-2-yl)acetamide]
21 | > 10 µM | 1.17 µM |  | COc1nn(CC(=O)NC2CCOCC2)c(=O)c2cc3ccccc3n12 [Final Cpd 24, 2-(4-methoxy-1-oxo-[1,2,4]triazino[4,5-a]indol-2-yl)-N-tetrahydropyran-4-yl-acetamide]
22 | > 20 µM | > 10 µM |  | O=C(Cn1nc(C2CCCC2)n2c(cc3ccccc32)c1=O)NC1CCOCC1 [Final Cpd 25]
23 | > 10 µM | > 10 µM |  | CC(C)Cc1nn(CC(=O)NC2CCOCC2)c(=O)c2cc3ccccc3n12 [Final Cpd 26]

Row | EC50 [1] | IC50 [2] | melting point | SMILES
24 | > 10 µM | > 10 µM |  | O=C(Cn1nc(-c2cccs2)n2c(cc3ccccc32)c1=O)NC1CCOCC1 [Final Cpd 27]
25 | > 10 µM | > 10 µM |  | O=C(Cn1nc(C2CCCCC2)n2c(cc3ccccc32)c1=O)NC1CCOCC1 [Final Cpd 28]
26 | > 10 µM | 0.66 µM |  | CC(C)c1nn(CC(=O)NC2CC2)c(=O)c2cc3ccccc3n12 [Final Cpd 29]
27 | > 10 µM | > 10 µM | 248.91 °C | CCc1nn(CC(=O)Nc2ccncn2)c(=O)c2cc3ccc(C)cc3n12 [Final Cpd 30]
28 | > 10 µM | 0.79 µM |  | CCc1nn(CC(=O)Nc2ccncc2)c(=O)c2cc3ccc(F)cc3n12 [Final Cpd 31]
29 | > 10 µM | > 10 µM | 264.11 °C | CCc1nn(CC(=O)NC2CCOCC2)c(=O)c2cc3ccc(C)cc3n12 [Final Cpd 32]
30 | > 10 µM | 0.31 µM |  | CCc1nn(CC(=O)Nc2ccncn2)c(=O)c2cc3ccc(F)cc3n12 [Final Cpd 33]
31 | > 10 µM | 7.24 µM | 274.18 °C | CCc1nn(CC(=O)NC2CCOCC2)c(=O)c2cc3cc(C)ccc3n12 [Final Cpd 34]
32 | > 10 µM | > 10 µM | 285.66 °C | CCc1nn(CC(=O)NC2CCOCC2)c(=O)c2cc3cc(F)ccc3n12 [Final Cpd 35]
33 | > 10 µM | 7.24 µM |  | CCc1nn(CC(=O)Nc2ccncn2)c(=O)c2cc3cc(F)ccc3n12 [Final Cpd 36]
34 | > 10 µM | > 10 µM |  | CCc1nn(CC(=O)Nc2ccncn2)c(=O)c2cc3cc(C)ccc3n12 [Final Cpd 37]
35 | > 20 µM | 7.7 µM | 243 °C | CCc1nn(CC(=O)Nc2ccn(C(C)C)n2)c(=O)c2cc3ccccc3n12 [Final Cpd 38]
36 | > 20 µM | 0.176 µM |  | CCc1nn(CC(=O)N[C@H]2C[C@@](C)(O)C2)c(=O)c2cc3ccc(F)cc3n12 [Final Cpd 39, 2-{4-ethyl-7-fluoro-1-oxo-[1,2,4]triazino[4,5-a]indol-2(1H)-yl}-N-((1s,3s)-3-hydroxy-3-methylcyclobutyl)acetamide]
37 | > 20 µM | 0.237 µM |  | CN(C)c1nn(CC(=O)N[C@H]2C[C@@](C)(O)C2)c(=O)c2cc3ccc(F)cc3n12 [Final Cpd 40]
38 | 15.4 µM | 0.052 µM |  | CC(C)c1nn(CC(=O)N[C@H]2C[C@@](C)(O)C2)c(=O)c2cc3ccccc3n12 [Final Cpd 41]
39 | 10.9 µM | 0.077 µM |  | CC(C)c1nn(CC(=O)N[C@H]2C[C@@](C)(O)C2)c(=O)c2cc3ccc(F)cc3n12 [Final Cpd 42]
40 | > 20 µM | 0.086 µM |  | CCc1nn(CC(=O)N[C@H]2C[C@@](C)(O)C2)c(=O)c2cc3ccccc3n12 [Final Cpd 43]
41 | > 20 µM | 0.057 µM |  | CN(C)c1nn(CC(=O)N[C@H]2C[C@@](C)(O)C2)c(=O)c2cc3ccccc3n12 [Final Cpd 44]
42 | > 20 µM | 0.044 µM |  | CC(C)c1nn(CC(=O)Nc2ccc3nncn3c2)c(=O)c2cc3ccc(F)cc3n12 [Final Cpd 46]
43 | > 20 µM | 0.052 µM |  | CN(C)c1nn(CC(=O)Nc2ccc3nncn3c2)c(=O)c2cc3ccccc3n12 [Final Cpd 47]
44 | > 20 µM | 0.122 µM |  | CCc1nn(CC(=O)Nc2ccc3nncn3c2)c(=O)c2cc3ccccc3n12 [Final Cpd 48]
45 | 3.94 µM | 0.025 µM |  | CC(C)c1nn(CC(=O)Nc2ccc3nncn3n2)c(=O)c2cc3ccccc3n12 [Final Cpd 49, N-([1,2,4]triazolo[4,3-b]pyridazin-6-yl)-2-(4-isopropyl-1-oxo-[1,2,4]triazino[4,5-a]indol-2(1H)-yl)acetamide]
46 | > 10 µM | 4.07 µM |  | COc1nn(CC(=O)NC2CC2)c(=O)c2cc3ccccc3n12 [Final Cpd 50]
